Data from US20240116946A1 (Gilead Sciences, Inc., priority 2022, published 2024).

Tests used:
SARS-CoV-2-NLuc = assay: microbe, parasite or virus in culture; type: cell-based, SARS Coronavirus 2; conditions: read-out: MPro EC50
[1] = molecular target: recombinant SARS-CoV-2 Main protease (Mpro) (Severe acute respiratory syndrome coronavirus 2 (2019-nCoV) (SARS-CoV-2), UniProt P0DTD1); assay: Cov Mpro Biochemical IC50 Assay; conditions: recombinant SARS-CoV-2 Mpro 7.5 nM, fluorogenic peptide substrate 40 μM; read-out: MPro IC50

SMILES | EC50 (SARS-CoV-2-NLuc) [nM] | IC50 [1] [nM]
COc1cnc(Cl)c(-c2cc3[nH]c(=O)n(-c4cncc5ccccc45)c(=O)c3s2)c1 (single isomer, unassigned) [Example 629, 6-(2-chloro-5-methoxypyridin-3-yl)-3-(isoquinolin-4-yl)thieno[3,2-d]pyrimidine-2,4(1H,3H)-dione] | 290 | 42.4
COc1cc(-c2cc3c(s2)c(=O)n(-c2cncc4ccccc24)c(=O)n3CC#N)c(Cl)cc1F (single isomer, unassigned) [Example 633, 2-[6-(2-chloro-4-fluoro-5-methoxy-phenyl)-3-(4-isoquinolyl)-2,4-dioxo-thieno[3,2-d]pyrimidin-1-yl]acetonitrile] | 3.29 | 3.22
COc1cc(-c2cc3c(s2)c(=O)n(-c2cncc4ccccc24)c(=O)n3CC#N)c(Cl)cc1F (single isomer, unassigned) [Example 634, 2-[6-(2-chloro-4-fluoro-5-methoxy-phenyl)-3-(4-isoquinolyl)-2,4-dioxo-thieno[3,2-d]pyrimidin-1-yl]acetonitrile] | 31.2 | 29
COc1cc(-c2cc3c(s2)c(=O)n(-c2cncc4ccccc24)c(=O)n3CC2(C#N)CC2)c(Cl)cc1F (single isomer, unassigned) [Example 635, 1-[[6-(2-chloro-4-fluoro-5-methoxy-phenyl)-3-(4-isoquinolyl)-2,4-dioxo-thieno[3,2-d]pyrimidin-1-yl]methyl]cyclopropanecarbonitrile] | 1.78 | 3.26
COc1cc(-c2cc3c(s2)c(=O)n(-c2cncc4ccccc24)c(=O)n3CC2(C#N)CC2)c(Cl)cc1F (single isomer, unassigned) [Example 636, 1-[[6-(2-chloro-4-fluoro-5-methoxy-phenyl)-3-(4-isoquinolyl)-2,4-dioxo-thieno[3,2-d]pyrimidin-1-yl]methyl]cyclopropanecarbonitrile] | 5.54 | 11.6
COc1cc(-c2cc3c(s2)c(=O)n(-c2cncc4ccccc24)c(=O)n3CCC#N)c(Cl)cc1F (single isomer, unassigned) [Example 637, 3-[6-(2-chloro-4-fluoro-5-methoxy-phenyl)-3-(4-isoquinolyl)-2,4-dioxo-thieno[3,2-d]pyrimidin-1-yl]propanenitrile] | 1.85 | 3.48
COc1cc(-c2cc3c(s2)c(=O)n(-c2cncc4ccccc24)c(=O)n3CCC#N)c(Cl)cc1F (single isomer, unassigned) [Example 638, 3-[6-(2-chloro-4-fluoro-5-methoxy-phenyl)-3-(4-isoquinolyl)-2,4-dioxo-thieno[3,2-d]pyrimidin-1-yl]propanenitrile] | 60.6 | 192
COc1cc(-c2cc3[nH]c(=O)n(-c4cncc5cnn(C)c45)c(=O)c3s2)c(Cl)cc1F (single isomer, unassigned) [Example 639, 6-(2-chloro-4-fluoro-5-methoxy-phenyl)-3-(1-methylpyrazolo[4,3-c]pyridin-7-yl)-1H-thieno[3,2-d]pyrimidine-2,4-dione] | 173 | 114
COc1cc(-c2cc3[nH]c(=O)n(-c4cncc5cnn(C)c45)c(=O)c3s2)c(Cl)cc1F (single isomer, unassigned) [Example 640, 6-(2-chloro-4-fluoro-5-methoxy-phenyl)-3-(1-methylpyrazolo[4,3-c]pyridin-7-yl)-1H-thieno[3,2-d]pyrimidine-2,4-dione] | 3.48 | < 4.26
COc1cc(-c2cc3c(s2)c(=O)n(-c2cncc4cnn(C)c24)c(=O)n3CCC#N)c(Cl)cc1F (single isomer, unassigned) [Example 644, 3-[6-(2-chloro-4-fluoro-5-methoxy-phenyl)-3-(1-methylpyrazolo[4,3-c]pyridin-7-yl)-2,4-dioxo-thieno[3,2-d]pyrimidin-1-yl]propanenitrile] | 1.55 | 3.1
COc1cc(-c2cc3c(s2)c(=O)n(-c2cncc4cnn(C)c24)c(=O)n3CCC#N)c(Cl)cc1F (single isomer, unassigned) [Example 645, 3-[6-(2-chloro-4-fluoro-5-methoxy-phenyl)-3-(1-methylpyrazolo[4,3-c]pyridin-7-yl)-2,4-dioxo-thieno[3,2-d]pyrimidin-1-yl]propanenitrile] | 36 | 43.5
COc1cc(-c2cc3[nH]c(=O)n(-c4cncc5cccc(F)c45)c(=O)c3s2)c(Cl)cc1F (single isomer, unassigned) [Example 899, 6-(2-chloro-4-fluoro-5-methoxyphenyl)-3-(5-fluoroisoquinolin-4-yl)thieno[3,2-d]pyrimidine-2,4(1H,3H)-dione] | 3.13 | 4.03
COc1cc(-c2cc3[nH]c(=O)n(-c4cncc5cccc(F)c45)c(=O)c3s2)c(Cl)cc1F (single isomer, unassigned) [Example 900, 6-(2-chloro-4-fluoro-5-methoxyphenyl)-3-(5-fluoroisoquinolin-4-yl)thieno[3,2-d]pyrimidine-2,4(1H,3H)-dione] | 172 | 334
Cn1ncc2cncc(-n3c(=O)c4sc(-c5ccc(F)cc5Cl)cc4n(CCC#N)c3=O)c21 (single isomer, unassigned) [Example 955, 3-(6-(2-chloro-4-fluorophenyl)-3-(1-methyl-1H-pyrazolo[4,3-c]pyridin-7-yl)-2,4-dioxo-3,4-dihydrothieno[3,2-d]pyrimidin-1(2H)-yl)propanenitrile] | 9.67 | 6.81
Cn1ncc2cncc(-n3c(=O)c4sc(-c5ccc(F)cc5Cl)cc4n(CCC#N)c3=O)c21 (single isomer, unassigned) [Example 956, 3-(6-(2-chloro-4-fluorophenyl)-3-(1-methyl-1H-pyrazolo[4,3-c]pyridin-7-yl)-2,4-dioxo-3,4-dihydrothieno[3,2-d]pyrimidin-1(2H)-yl)propanenitrile] | 699 | > 1000
COc1cc(-c2cc3[nH]c(=O)n(-c4cncc5ccn(C)c45)c(=O)c3s2)c(Cl)cc1F (single isomer, unassigned) [Example 957, 6-(2-chloro-4-fluoro-5-methoxyphenyl)-3-(1-methyl-1H-pyrrolo[3,2-c]pyridin-7-yl)thieno[3,2-d]pyrimidine-2,4(1H,3H)-dione] | 2.65 | 2.22
COc1cc(-c2cc3[nH]c(=O)n(-c4cncc5ccn(C)c45)c(=O)c3s2)c(Cl)cc1F (single isomer, unassigned) [Example 958, 6-(2-chloro-4-fluoro-5-methoxyphenyl)-3-(1-methyl-1H-pyrrolo[3,2-c]pyridin-7-yl)thieno[3,2-d]pyrimidine-2,4(1H,3H)-dione] | 13.3 | 11.2
COc1cc(-c2cc3c(s2)c(=O)n(-c2cncc4[nH]nc(C)c24)c(=O)n3CCC#N)c(Cl)cc1F (single isomer, unassigned) [Example 959, 3-(6-(2-chloro-4-fluoro-5-methoxyphenyl)-3-(3-methyl-1H-pyrazolo[3,4-c]pyridin-4-yl)-2,4-dioxo-3,4-dihydrothieno[3,2-d]pyrimidin-1(2H)-yl)propanenitrile] | 5.86 | 5.11
